How the values were obtained:
MCF-10A [1] = test: Antitumor activity against human spontaneously immortalized CDH-/- MCF10A cells assessed as cell numbers measured after 48 hrs; assay type: functional, cell-based
MCF-10A [2] = test: Antitumor activity against human spontaneously immortalized wild type MCF-10A cells assessed as cell numbers measured after 48 hrs; assay type: functional, cell-based
[3] = Ratio of EC50 for antitumor activity against human spontaneously immortalized wild type MCF10A cells assessed as cell numbers measured after 48 hrs to antitumor activity against human spontaneously immortalized CDH-/- MCF10A cells assessed as cell numbers measured after 48 hrs; assay type: functional, MCF-10A
[4] = Homo sapiens, MCF-10A, 48 h, read-out: EC50

Row | SMILES | EC50 (MCF-10A [1]; [4]) | EC50 (MCF-10A [2]; [4]) | Ratio EC50 [3] | EC50 (MCF-10A [1]; mcf-10a) | EC50 (MCF-10A [2]; mcf-10a)
1 | COc1cc2c(NC3CCN(C)CC3)cc(-c3ccc(C)o3)nc2cc1OCCCN1CCCC1 | 0.2 µM | 0.5 µM | – | – | –
2 | COc1ccc2nc(C)cc(NCc3ccc(F)c(F)c3)c2c1 | 9.1 µM | 12 µM | 1.3 | – | –
3 | COc1ccc2nc(C)cc(NCc3cccc(CO)c3)c2c1 | 17.1 µM | 24.7 µM | 1.4 | – | –
4 | CCCCCCCOc1cc2nc(C)cc(NCc3ccc(F)cc3)c2cc1OC | 1.7 µM | 2.2 µM | – | – | –
5 | COc1ccc2nc(C)cc(NCc3cccc(C(F)(F)F)c3)c2c1 | 7.2 µM | 8 µM | 1 | – | –
6 | CCCCCCCOc1cc(OC)cc2c(NCc3ccc(F)cc3)cc(C)nc12 | 2.7 µM | 3.3 µM | 1.2 | – | –
7 | COc1ccc2nc(C)cc(NC[C@H]3NC[C@H](O)[C@@H]3O)c2c1.O=C(O)C(F)(F)F | – | – | – | Nd(Toxic) | Nd(Toxic)
8 | COc1cc2c(NCc3ccc(F)cc3)cc(-c3ccc(C)o3)nc2cc1OCCCN1CCCC1 | 1.8 µM | 2.1 µM | 1.1 | – | –
9 | CCCCCCCCCCOc1ccc2nc(C)cc(NCc3ccc(F)cc3)c2c1 | 1.9 µM | 2 µM | 1 | – | –
10 | COc1ccc2nc(C)cc(NCc3ccccc3F)c2c1 | 14 µM | 17 µM | 1.2 | – | –
11 | COc1ccc2nc(C)cc(NCc3cccc(OC(F)F)c3)c2c1 | 10.3 µM | 14.3 µM | 1.3 | – | –
12 | COc1cc2c(NCc3ccc(F)cc3)cc(C)nc2cc1OCCCN1CCCC1 | 1.9 µM | 2.1 µM | 1.1 | – | –
13 | COc1ccc2nc(C)cc(SCc3ccc(F)cc3)c2c1 | 41 µM | 50.5 µM | 1.2 | – | –
14 | COc1ccc2nc(-c3ccc(C)o3)cc(NC3CCN(C)CC3)c2c1 | 1.1 µM | 0.8 µM | 0.8 | – | –
15 | COc1ccc2nc(C)cc(NCc3ccc(F)cc3C(F)(F)F)c2c1 | 5.2 µM | 4.2 µM | 0.8 | – | –
16 | COc1cccc(CNc2cc(C)nc3ccc(OC)cc23)c1 | 9.7 µM | 12.5 µM | 1.3 | – | –
17 | COc1ccc2nc(C)cc(NCc3ccccc3)c2c1 | 25.9 µM | 28.6 µM | 1.1 | – | –
18 | CCCCCCOc1ccc2nc(C)cc(NCc3ccc(F)cc3)c2c1 | 8.8 µM | 9.1 µM | 1 | – | –
19 | COc1ccc2nc(C)cc(NCC[C@@H]3CNC[C@H]3O)c2c1.O=C(O)C(F)(F)F | – | – | – | Nd(Toxic) | Nd(Toxic)
20 | CCCCCCCCOc1ccc2nc(C)cc(NCc3ccc(F)cc3)c2c1 | 1.8 µM | 2.2 µM | 1.1 | – | –
21 | COc1ccc2nc(COCCCCCCN=[N+]=[N-])cc(NCc3ccc(F)cc3)c2c1.O=C(O)C(F)(F)F | 8.4 µM | 8.9 µM | 1.1 | – | –
22 | COc1ccc2nc(C)cc(NCc3cccc(C#N)c3)c2c1 | 13.4 µM | 17.4 µM | 1.3 | – | –
23 | Cc1cc(NCc2ccc(F)cc2)c2ccccc2n1 | 15.4 µM | 20.1 µM | 1.3 | – | –
24 | COc1ccc2nc(C)cc(NC3CCN(C)CC3)c2c1 | 7.8 µM | 7.1 µM | 0.9 | – | –
25 | COc1ccc2nc(C)cc(NCc3ccc(OC)c(F)c3)c2c1 | 9 µM | 10.3 µM | 1.1 | – | –
26 | COc1ccc2nc(C)cc(SCc3ccccc3)c2c1 | 30.6 µM | 37.1 µM | 1.2 | – | –
27 | COc1ccc2nc(C)cc(NCc3ccc(C)cc3)c2c1 | 18.8 µM | 22.4 µM | 1.2 | – | –
28 | COc1ccc(CNc2cc(C)nc3ccc(OC)cc23)cc1 | 7 µM | 9.7 µM | 1.4 | – | –
29 | COc1ccc2nc(C)cc(NCc3ccc(F)c(OC)c3)c2c1 | 9.5 µM | 12.9 µM | – | – | –
30 | COc1ccc2nc(C)cc(NCC3CCCN(C)C3)c2c1 (centres undefined) | 6.4 µM | 5.8 µM | – | – | –

Reference: ChEMBL document CHEMBL5055686, “Discovery of AL-GDa62 as a Potential Synthetic Lethal Lead for the Treatment of Gastric Cancer” (J Med Chem, 2021)
